Measured values as given in PMC1774582, “Choroid plexus epithelial monolayers – a cell culture model from porcine brain” (Cerebrospinal Fluid Research, 2006).
Values belong to the molecule of their own block, whether it stands above or below them.

Legend:
[1] = system: choroid plexus epithelial cells
Mrp1 [2] = system: Mrp1; design: method as in PMID 10675353; details: animals lacking Mrp1 ref 49; cited from earlier work
Mrp1 [3] = biological target: Mrp1 (Sus scrofa, UniProt K9IVJ9); details: 2 μM FL-MTX, CPEC; direction taken from paragraph and Figure 10B
[4] = system: choroid plexus epithelial cells; experiment: Permeability across choroid plexus epithelial cell (CPEC) monolayers on Transwell filters; details: apical versus basolateral direction
[5] = system: intact choroid plexus tissue; details: intact choroid plexus tissue from guinea pig ref 47; cited from earlier work

Mrp1 (Sus scrofa, UniProt K9IVJ9), sequence (K9IVJ9 1-1532): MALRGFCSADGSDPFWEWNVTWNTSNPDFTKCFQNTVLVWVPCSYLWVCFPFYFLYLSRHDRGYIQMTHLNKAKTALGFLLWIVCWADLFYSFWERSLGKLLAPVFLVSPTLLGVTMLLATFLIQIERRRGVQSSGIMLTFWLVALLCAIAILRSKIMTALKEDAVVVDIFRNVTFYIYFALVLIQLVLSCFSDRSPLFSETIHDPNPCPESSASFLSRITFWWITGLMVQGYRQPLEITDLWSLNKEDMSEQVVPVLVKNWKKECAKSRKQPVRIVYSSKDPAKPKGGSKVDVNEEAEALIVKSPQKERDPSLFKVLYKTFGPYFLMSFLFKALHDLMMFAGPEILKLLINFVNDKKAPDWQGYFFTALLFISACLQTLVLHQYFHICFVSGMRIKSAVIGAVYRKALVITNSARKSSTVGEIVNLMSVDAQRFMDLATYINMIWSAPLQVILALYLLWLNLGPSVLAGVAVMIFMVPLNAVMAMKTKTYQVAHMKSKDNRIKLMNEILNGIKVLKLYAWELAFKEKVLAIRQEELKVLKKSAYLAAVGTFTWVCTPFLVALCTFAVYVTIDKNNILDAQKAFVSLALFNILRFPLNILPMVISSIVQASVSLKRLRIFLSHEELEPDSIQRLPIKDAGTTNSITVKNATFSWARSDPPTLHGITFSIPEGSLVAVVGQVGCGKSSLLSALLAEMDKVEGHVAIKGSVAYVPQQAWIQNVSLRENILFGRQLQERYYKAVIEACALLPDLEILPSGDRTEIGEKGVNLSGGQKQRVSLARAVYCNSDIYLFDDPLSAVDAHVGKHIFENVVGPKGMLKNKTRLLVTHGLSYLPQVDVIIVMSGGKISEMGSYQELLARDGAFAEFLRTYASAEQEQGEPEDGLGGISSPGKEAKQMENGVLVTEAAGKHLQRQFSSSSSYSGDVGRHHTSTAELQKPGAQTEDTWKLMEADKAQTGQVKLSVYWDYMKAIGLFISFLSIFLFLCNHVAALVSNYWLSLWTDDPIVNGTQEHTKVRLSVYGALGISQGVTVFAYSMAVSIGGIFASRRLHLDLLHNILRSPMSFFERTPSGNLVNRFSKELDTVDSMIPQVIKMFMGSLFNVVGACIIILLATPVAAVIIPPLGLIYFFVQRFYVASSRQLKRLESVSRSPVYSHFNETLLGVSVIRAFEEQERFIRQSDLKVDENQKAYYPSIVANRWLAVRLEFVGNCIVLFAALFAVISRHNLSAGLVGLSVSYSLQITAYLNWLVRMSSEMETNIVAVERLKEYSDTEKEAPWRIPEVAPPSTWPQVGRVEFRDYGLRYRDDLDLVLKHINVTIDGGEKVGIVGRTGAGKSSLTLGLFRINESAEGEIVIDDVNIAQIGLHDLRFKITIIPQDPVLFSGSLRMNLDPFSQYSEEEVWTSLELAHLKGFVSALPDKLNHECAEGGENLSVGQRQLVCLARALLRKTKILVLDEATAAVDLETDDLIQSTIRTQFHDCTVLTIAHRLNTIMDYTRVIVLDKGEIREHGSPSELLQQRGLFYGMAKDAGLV

SMILES: O=C(O)c1ccc2c(c1)C(=O)OC21c2ccc(O)cc2Oc2cc(O)ccc21 [5-carboxyfluorescein]
Papp (apparent permeability coefficient) [1]: 45 ×10⁻⁶ cm/s
Papp with opened tight junctions versus intact monolayer [1]: nearly doubling

SMILES: COc1cc([C@@H]2c3cc4c(cc3[C@@H](O[C@@H]3O[C@@H]5CO[C@@H](C)O[C@H]5[C@H](O)[C@H]3O)[C@H]3COC(=O)[C@H]23)OCO4)cc(OC)c1O [etoposide]
accumulation in CSF (Mrp1 [2]): increased accumulation

SMILES: CC[C@]1(O)C[C@@H]2CN(CCc3c([nH]c4ccccc34)[C@@](C(=O)OC)(c3cc4c(cc3OC)N(C)[C@H]3[C@@](O)(C(=O)OC)[C@H](OC(C)=O)[C@]5(CC)C=CCN6CC[C@]43[C@@H]65)C2)C1 [vinblastine]
influence on uptake of the Pgp substrate ritonavir [5]: not influenced

Further lines, results first:

effect on FL-MTX transport from the basolateral to the apical side (Mrp1 [3]): did not significantly affect
SMILES: Nc1ccc(C(=O)NCC(=O)O)cc1 [p-aminohippuric acid]

effect on FL-MTX transport from the basolateral to the apical side (Mrp1 [3]): did not significantly affect
SMILES: CCCN(CCC)S(=O)(=O)c1ccc(C(=O)O)cc1 [probenecid]

preferred / directed transport across CP epithelial cells [4]: no directed transport
SMILES: COC(=O)c1ccccc1-c1c2ccc(=N)cc-2oc2cc(N)ccc12 [rhodamine 123]
